Among the test systems are M14 melanoma; HCT-15 colon; HS 578T breast; HT29 colon; RXF 393 renal; SK-MEL-28 melanoma; UACC-62 melanoma; PC-3 prostate; HCC-2998 colon; MOLT-4 leukemia.
Assay in all cases: inhibition of tumour cell growth, NCI panel, 48 h

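Growth conditions: 96-well plates. Treatment: test compound, 48 hours, 5 concentrations. Analysis: linear interpolation between bracketing concentrations; unreached endpoints set to highest concentration. TGI is the concentration that stops growth completely.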

In the case of `O=C1C=C(N2CCN(CCOCCO)CC2)C(=O)c2c(O)ccc(O)c21`, the TGI in the assay on M14 melanoma turned out to be 3.1 µM; in the assay with HCT-15 colon, 9.55 µM; with HS 578T breast it was 45.3 µM; in the assay on HT29 colon, 15.5 µM; in the assay with RXF 393 renal, 28.8 µM; with SK-MEL-28 melanoma, 32.7 µM. Moreover, the results for the TGI in the assay with UACC-62 melanoma, in the assay with PC-3 prostate and in the assay on HCC-2998 colon were 4.1 µM, 10.7 µM and 6.95 µM, respectively.

For the compound `CC(C)(C)[Si](C)(C)OC[C@H](/C=C\CCCC(=O)O)NC1(c2ccccc2)c2ccccc2-c2ccccc21`, the TGI with M14 melanoma was found to be 38.8 µM; with HCT-15 colon, 50.9 µM; in the assay on HS 578T breast, 50.5 µM; in the assay on HT29 colon, 47.6 µM; in the assay on RXF 393 renal, 25 µM; in the assay with SK-MEL-28 melanoma, 33 µM. Besides, the TGI in the assay with UACC-62 melanoma was 36 µM; in the assay with MOLT-4 leukemia, 33.9 µM; in the assay with PC-3 prostate it was 40.3 µM; with HCC-2998 colon it was 37.2 µM.

In the case of `O=C1N(c2ccccc2)C(=S)/C(=C/c2ccc(Cl)cc2)N1c1ccc(Cl)cc1`, the TGI in the assay with M14 melanoma, in the assay with HCT-15 colon, in the assay with HS 578T breast, in the assay on HT29 colon, in the assay on RXF 393 renal and in the assay with SK-MEL-28 melanoma was > 100 µM in each case. Moreover, the TGI in the assay with UACC-62 melanoma was 53.3 µM; in the assay with MOLT-4 leukemia, 13.5 µM; in the assay with PC-3 prostate, > 100 µM; with HCC-2998 colon, > 100 µM.

For `O=S(=O)(O)c1cc(S(=O)(=O)O)c2c(N=Nc3ccc(N=Nc4ccccc4)cc3)c(O)ccc2c1`, the TGI in the assay on M14 melanoma, in the assay with HCT-15 colon, in the assay on HS 578T breast, with HT29 colon, in the assay with RXF 393 renal and in the assay with SK-MEL-28 melanoma was > 100 µM throughout. Besides, the TGI with UACC-62 melanoma, in the assay on MOLT-4 leukemia, in the assay with PC-3 prostate and in the assay on HCC-2998 colon was > 100 µM each time.

Take `Cc1cc(=O)oc2c(CNC(CC(C)C)C(=O)O)c(O)ccc12` (centres undefined): the TGI in the assay with M14 melanoma, in the assay on HCT-15 colon, in the assay on HS 578T breast, in the assay on HT29 colon, with RXF 393 renal and with SK-MEL-28 melanoma was > 100 µM each time. Further, the TGI in the assay on UACC-62 melanoma, in the assay with MOLT-4 leukemia, in the assay on PC-3 prostate and with HCC-2998 colon was > 100 µM throughout.

In the case of `NC(=O)Oc1ccccc1`, the TGI with M14 melanoma, in the assay on HCT-15 colon, in the assay on HS 578T breast, with HT29 colon, in the assay with RXF 393 renal and in the assay with SK-MEL-28 melanoma was > 100 µM throughout. For the same compound, the TGI with MOLT-4 leukemia, in the assay on PC-3 prostate and in the assay with HCC-2998 colon was > 100 µM in each case.

Take `Cc1ccccc1NC(=O)Cc1csc(N=Nc2c(O)[nH]c3ccccc23)n1`: the TGI with M14 melanoma was > 100 µM; with HCT-15 colon, > 100 µM; in the assay with HS 578T breast it was 84.9 µM; with HT29 colon it was > 100 µM; in the assay with RXF 393 renal it was 69.5 µM; with SK-MEL-28 melanoma it was > 1 µM. The TGI in the assay with UACC-62 melanoma was > 100 µM; in the assay on MOLT-4 leukemia, > 100 µM; in the assay on PC-3 prostate it was 37.2 µM.

Consider `CCOC(=O)Cn1c(=O)c(C)cn(COCCO)c1=O`, for which the TGI in the assay with M14 melanoma, in the assay with HS 578T breast, in the assay on HT29 colon, with RXF 393 renal, in the assay with SK-MEL-28 melanoma and in the assay on MOLT-4 leukemia was > 100 µM each time. Further, the TGI in the assay on PC-3 prostate and with HCC-2998 colon was > 100 µM each time.

In the case of `Cc1ccc(/C=C2/N=C(N/N=C\c3ccccc3)NC2=O)cc1`, the TGI in the assay with M14 melanoma is 85.7 µM; in the assay on HCT-15 colon, > 100 µM; with HS 578T breast, 85.3 µM; in the assay on HT29 colon, > 100 µM; in the assay on RXF 393 renal, 66 µM; in the assay with SK-MEL-28 melanoma it was > 100 µM. The TGI was 72.2 µM with MOLT-4 leukemia, > 100 µM in the assay on PC-3 prostate and 72.1 µM with HCC-2998 colon.

Take `Clc1cc2nnn(C3CCCO3)c2cc1Cl` (centres undefined): the TGI in the assay on M14 melanoma, in the assay on HCT-15 colon, with HS 578T breast, in the assay on HT29 colon, in the assay with RXF 393 renal and in the assay on UACC-62 melanoma was > 100 µM each time. Moreover, the TGI in the assay with MOLT-4 leukemia, in the assay on PC-3 prostate and in the assay on HCC-2998 colon was > 100 µM throughout.

On to `COc1ccc(CNc2nc3ccccc3nc2C(=O)O)cc1`, for which the TGI was > 100 µM in the assay with M14 melanoma; 60.9 µM with HCT-15 colon; > 100 µM with HS 578T breast; > 100 µM in the assay on HT29 colon; > 100 µM in the assay on RXF 393 renal; > 100 µM in the assay with SK-MEL-28 melanoma. Besides, the TGI in the assay on UACC-62 melanoma, with PC-3 prostate and in the assay on HCC-2998 colon was > 100 µM in each case.

Turning to `C=CCNC(=S)/N=C/C(C(=O)Nc1ccccc1C)=C(\C)O`, the TGI with M14 melanoma, with HCT-15 colon, in the assay on HS 578T breast, in the assay on HT29 colon, in the assay on RXF 393 renal and with UACC-62 melanoma was > 100 µM in each case. For the same compound, the TGI in the assay on MOLT-4 leukemia, in the assay with PC-3 prostate and in the assay on HCC-2998 colon was > 100 µM throughout.

In the case of `O=c1[nH]nc(-c2ccccc2)n1-n1cnnc1`, the TGI in the assay with M14 melanoma, with HCT-15 colon, with HS 578T breast, with HT29 colon, with RXF 393 renal and with UACC-62 melanoma was > 100 µM each time. Also, the TGI in the assay on MOLT-4 leukemia, with PC-3 prostate and in the assay on HCC-2998 colon was > 100 µM in each case.

As to `O=C(O)c1ccc(N/C(=C(/C(Cl)=C(Cl)Cl)[N+](=O)[O-])n2nnc3ccccc32)cc1`, the TGI in the assay with M14 melanoma, with HCT-15 colon, in the assay with HS 578T breast, in the assay with HT29 colon, in the assay with SK-MEL-28 melanoma and in the assay on UACC-62 melanoma was > 100 µM each time. Besides, the TGI with MOLT-4 leukemia, in the assay on PC-3 prostate and in the assay on HCC-2998 colon was > 100 µM in each case.

The record behind these values is PubChem BioAssay (NCI).
